Measurements as given in ChEMBL document CHEMBL1909046, “DrugMatrix in vitro pharmacology data”.

Assays:
[1] = target: 5-hydroxytryptamine receptor 4 (Cavia porcellus, UniProt O70528); format: cell membranes, Dunkin-Hartley, Striatum, Membrane; also: in other assays of this panel Not Active means under 50% inhibition at 10 µM
[2] = DRUGMATRIX: Interleukin IL-1 radioligand binding (ligand: [125I] interleukin 1beta); format: cell membranes, Membrane; conditions: nih3t3; Not Active = under 50% inhibition at 10 µM
[3] = target: T1, Polyunsaturated fatty acid lipoxygenase ALOX15 (Oryctolagus cuniculus, UniProt P12530); assay: biochemical; format: tissue-based, Reticulocytes; conditions: reticulocytes;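 also: inhibition of 15-lipoxygenase enzyme activity measured with linoleic acid as the substrate; in other assays of this panel Not Active means under 50% inhibition at 10 µM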
T1 sequence (P12530 whole entry): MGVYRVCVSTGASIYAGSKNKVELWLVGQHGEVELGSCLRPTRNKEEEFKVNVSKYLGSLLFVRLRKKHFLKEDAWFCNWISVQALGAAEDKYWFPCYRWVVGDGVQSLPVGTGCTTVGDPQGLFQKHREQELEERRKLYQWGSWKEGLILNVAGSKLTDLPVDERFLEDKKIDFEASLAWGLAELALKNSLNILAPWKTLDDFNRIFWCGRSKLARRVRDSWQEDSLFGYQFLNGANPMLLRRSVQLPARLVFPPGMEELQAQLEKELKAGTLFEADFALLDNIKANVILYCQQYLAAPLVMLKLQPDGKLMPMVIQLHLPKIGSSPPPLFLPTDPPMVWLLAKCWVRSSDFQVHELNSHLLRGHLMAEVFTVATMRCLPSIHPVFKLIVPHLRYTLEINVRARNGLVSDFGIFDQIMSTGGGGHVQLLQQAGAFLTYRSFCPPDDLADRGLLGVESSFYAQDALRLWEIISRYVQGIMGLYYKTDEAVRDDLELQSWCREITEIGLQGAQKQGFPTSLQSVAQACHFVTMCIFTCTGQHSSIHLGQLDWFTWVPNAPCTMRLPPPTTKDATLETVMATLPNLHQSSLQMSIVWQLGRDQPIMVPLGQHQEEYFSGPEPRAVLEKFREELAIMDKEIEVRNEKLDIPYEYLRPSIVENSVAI

[4] = target: Kappa-type opioid receptor (Homo sapiens, UniProt P41145); assay: DRUGMATRIX: Opiate kappa (OP2, KOP) radioligand binding (ligand: [3H] Diprenorphine); format: cell membranes, HEK293, Membrane; conditions: Not Active = under 50% inhibition at 10 µM
Cytochrome P450 2C19 = Cytochrome P450 2C19 (Homo sapiens, UniProt P33261); also: in other assays of this panel Not Active means under 50% inhibition at 10 µM
Cytochrome P450 2C9 = Cytochrome P450 2C9 (Homo sapiens, UniProt P11712); also: in other assays of this panel Not Active means under 50% inhibition at 10 µM
Androgen receptor = target: T2, Androgen receptor (Rattus norvegicus, UniProt P15207); also: in other assays of this panel Not Active means under 50% inhibition at 10 µM
T2 sequence (P15207 whole entry): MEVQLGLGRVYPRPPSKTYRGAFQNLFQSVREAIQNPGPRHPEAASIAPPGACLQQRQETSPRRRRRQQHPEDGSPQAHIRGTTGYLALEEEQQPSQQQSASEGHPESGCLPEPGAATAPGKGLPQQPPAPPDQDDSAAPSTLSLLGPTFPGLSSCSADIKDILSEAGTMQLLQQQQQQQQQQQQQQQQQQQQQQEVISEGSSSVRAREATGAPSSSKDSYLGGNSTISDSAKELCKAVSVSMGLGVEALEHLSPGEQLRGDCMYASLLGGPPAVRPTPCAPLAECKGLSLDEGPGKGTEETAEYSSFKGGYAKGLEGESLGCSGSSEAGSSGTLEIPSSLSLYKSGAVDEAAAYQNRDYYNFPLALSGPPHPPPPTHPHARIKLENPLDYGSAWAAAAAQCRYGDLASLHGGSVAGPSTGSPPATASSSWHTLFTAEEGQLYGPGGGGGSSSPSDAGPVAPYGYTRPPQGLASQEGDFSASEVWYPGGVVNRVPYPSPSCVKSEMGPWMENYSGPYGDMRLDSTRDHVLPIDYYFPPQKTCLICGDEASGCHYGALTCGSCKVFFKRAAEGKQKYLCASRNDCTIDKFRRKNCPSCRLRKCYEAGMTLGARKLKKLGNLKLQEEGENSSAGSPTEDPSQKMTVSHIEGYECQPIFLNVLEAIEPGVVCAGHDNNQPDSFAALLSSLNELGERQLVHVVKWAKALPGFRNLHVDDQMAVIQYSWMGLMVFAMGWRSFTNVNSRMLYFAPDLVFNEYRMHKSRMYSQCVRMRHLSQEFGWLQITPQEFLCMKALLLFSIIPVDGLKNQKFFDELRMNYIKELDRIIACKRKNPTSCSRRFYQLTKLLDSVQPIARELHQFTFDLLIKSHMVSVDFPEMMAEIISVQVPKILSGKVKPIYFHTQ

Cytochrome P450 2D6 = Cytochrome P450 2D6 (Homo sapiens, UniProt P10635); also: in other assays of this panel Not Active means under 50% inhibition at 10 µM
Glucocorticoid receptor = target: T3, Glucocorticoid receptor (Homo sapiens, UniProt P04150); assay: biochemical; also: in other assays of this panel Not Active means under 50% inhibition at 10 µM
T3 sequence (P04150 whole entry): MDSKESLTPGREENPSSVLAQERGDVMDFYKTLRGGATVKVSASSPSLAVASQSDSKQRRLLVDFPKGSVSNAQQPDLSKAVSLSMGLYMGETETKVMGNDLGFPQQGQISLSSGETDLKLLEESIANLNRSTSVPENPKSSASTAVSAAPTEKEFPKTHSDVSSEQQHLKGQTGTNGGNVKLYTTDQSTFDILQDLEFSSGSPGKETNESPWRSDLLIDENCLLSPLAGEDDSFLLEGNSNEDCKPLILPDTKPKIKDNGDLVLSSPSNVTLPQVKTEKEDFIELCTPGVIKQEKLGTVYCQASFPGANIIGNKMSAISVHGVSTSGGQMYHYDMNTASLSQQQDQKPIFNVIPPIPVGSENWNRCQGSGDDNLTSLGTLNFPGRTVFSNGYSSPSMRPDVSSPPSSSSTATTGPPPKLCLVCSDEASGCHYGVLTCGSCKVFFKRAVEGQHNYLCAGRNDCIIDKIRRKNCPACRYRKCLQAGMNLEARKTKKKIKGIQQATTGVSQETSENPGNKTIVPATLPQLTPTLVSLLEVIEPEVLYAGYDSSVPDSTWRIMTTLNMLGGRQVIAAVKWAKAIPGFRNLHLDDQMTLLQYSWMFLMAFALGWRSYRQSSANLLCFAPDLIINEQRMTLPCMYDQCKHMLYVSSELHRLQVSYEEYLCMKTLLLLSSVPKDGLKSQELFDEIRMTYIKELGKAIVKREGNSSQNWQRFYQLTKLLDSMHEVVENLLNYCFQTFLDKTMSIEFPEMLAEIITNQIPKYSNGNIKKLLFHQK

Cytochrome P450 2C19, sequence (P33261 whole entry): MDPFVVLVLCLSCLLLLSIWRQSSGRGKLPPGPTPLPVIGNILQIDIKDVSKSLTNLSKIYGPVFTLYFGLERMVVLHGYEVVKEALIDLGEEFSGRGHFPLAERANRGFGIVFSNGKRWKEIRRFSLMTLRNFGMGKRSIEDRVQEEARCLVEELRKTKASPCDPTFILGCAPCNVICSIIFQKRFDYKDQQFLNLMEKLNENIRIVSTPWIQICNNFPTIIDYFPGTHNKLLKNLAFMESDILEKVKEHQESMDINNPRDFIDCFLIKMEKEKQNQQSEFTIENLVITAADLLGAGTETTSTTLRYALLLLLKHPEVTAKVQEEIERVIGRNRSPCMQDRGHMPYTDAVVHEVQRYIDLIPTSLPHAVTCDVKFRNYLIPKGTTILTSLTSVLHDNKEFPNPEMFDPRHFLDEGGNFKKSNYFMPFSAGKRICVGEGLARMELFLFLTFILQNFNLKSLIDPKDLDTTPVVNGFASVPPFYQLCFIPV
Kappa-type opioid receptor, sequence (P41145 whole entry): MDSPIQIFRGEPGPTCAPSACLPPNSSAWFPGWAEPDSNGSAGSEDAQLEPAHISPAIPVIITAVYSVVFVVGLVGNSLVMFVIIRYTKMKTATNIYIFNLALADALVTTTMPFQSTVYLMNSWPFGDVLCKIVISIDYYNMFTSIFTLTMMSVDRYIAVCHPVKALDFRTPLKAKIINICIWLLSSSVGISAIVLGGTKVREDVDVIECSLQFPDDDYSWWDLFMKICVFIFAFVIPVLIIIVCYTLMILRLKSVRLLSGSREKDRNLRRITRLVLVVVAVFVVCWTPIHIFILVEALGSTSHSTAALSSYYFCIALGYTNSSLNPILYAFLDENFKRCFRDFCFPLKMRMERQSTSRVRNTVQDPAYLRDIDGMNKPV
Cytochrome P450 2D6, sequence (P10635 whole entry): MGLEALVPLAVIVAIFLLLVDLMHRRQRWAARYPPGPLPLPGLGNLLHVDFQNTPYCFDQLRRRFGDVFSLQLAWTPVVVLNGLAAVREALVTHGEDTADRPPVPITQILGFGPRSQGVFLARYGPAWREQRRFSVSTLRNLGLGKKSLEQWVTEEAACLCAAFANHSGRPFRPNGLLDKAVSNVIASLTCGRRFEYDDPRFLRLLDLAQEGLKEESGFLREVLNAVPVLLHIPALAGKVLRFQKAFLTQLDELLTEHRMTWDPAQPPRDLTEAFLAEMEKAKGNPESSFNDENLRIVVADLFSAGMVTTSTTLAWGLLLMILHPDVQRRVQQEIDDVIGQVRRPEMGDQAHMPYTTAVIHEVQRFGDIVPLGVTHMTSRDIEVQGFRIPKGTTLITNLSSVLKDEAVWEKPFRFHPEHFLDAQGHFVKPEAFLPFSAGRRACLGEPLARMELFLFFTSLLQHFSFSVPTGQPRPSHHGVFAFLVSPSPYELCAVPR
Cytochrome P450 2C9, sequence (P11712 whole entry): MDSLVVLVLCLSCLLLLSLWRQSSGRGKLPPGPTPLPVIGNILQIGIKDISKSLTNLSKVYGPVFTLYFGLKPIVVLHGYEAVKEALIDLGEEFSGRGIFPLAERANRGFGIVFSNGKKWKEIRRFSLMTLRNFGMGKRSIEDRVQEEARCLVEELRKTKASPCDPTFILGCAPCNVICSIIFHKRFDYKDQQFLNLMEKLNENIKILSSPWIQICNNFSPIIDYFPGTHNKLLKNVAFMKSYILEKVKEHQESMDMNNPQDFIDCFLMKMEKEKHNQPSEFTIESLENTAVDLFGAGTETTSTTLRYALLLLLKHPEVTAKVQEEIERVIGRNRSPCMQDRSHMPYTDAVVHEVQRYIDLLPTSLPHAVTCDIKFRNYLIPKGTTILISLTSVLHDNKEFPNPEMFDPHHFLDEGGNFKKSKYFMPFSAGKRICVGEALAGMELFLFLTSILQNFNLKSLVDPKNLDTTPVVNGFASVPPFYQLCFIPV
5-hydroxytryptamine receptor 4, sequence (O70528 whole entry): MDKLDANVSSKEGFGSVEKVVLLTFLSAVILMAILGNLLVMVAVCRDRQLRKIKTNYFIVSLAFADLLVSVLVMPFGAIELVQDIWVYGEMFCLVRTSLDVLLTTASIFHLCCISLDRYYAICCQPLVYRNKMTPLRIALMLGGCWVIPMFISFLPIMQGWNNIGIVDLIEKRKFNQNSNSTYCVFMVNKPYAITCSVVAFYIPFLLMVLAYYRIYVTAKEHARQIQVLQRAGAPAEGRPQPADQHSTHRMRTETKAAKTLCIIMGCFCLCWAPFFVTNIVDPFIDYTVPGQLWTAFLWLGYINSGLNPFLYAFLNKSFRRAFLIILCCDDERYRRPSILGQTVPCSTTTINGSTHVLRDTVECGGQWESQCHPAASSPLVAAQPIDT

Row | SMILES | IC50 [1] | IC50 [2] | Ki [2] | IC50 [3] | IC50 ([4]; hek293) | IC50 (Cytochrome P450 2C19) [nM] | IC50 (Cytochrome P450 2C9) [nM] | IC50 (Androgen receptor) | IC50 ([1]; read-out: IC50) [nM] | Ki ([1]; read-out: Ki) [nM] | IC50 (Cytochrome P450 2D6) [nM] | Ki [4] [nM] | IC50 ([4]; read-out: IC50) [nM] | IC50 (Glucocorticoid receptor) [nM] | Ki (Glucocorticoid receptor) [nM]
1 | O=C(c1ccccc1C(F)(F)F)N1CCC(Cc2ccccc2)CC1 | Not Active | Not Active | Not Active | Not Active | Not Active | 400 | 2000 | Not Active | – | – | – | – | – | – | –
2 | COc1ccc2cc3[n+](cc2c1OC)CCc1cc2c(cc1-3)OCO2.[Cl-] [BERBERINE CHLORIDE] | – | Not Active | Not Active | Not Active | Not Active | – | – | – | 2220 | 370 | 4500 | – | – | – | –
3 | CC(=O)Oc1ccc(C(c2ccc(OC(C)=O)cc2)c2ccccn2)cc1 [BISACODYL] | Not Active | Not Active | Not Active | Not Active | – | – | 10000 | Not Active | – | – | – | 975 | 2440 | – | –
4 | Cc1cc2c(OCC(CNC(C)(C)C)OC(=O)c3ccccc3)cccc2[nH]1 (stereo not given) [BOPINDOLOL] | Not Active | Not Active | Not Active | Not Active | Not Active | – | – | – | – | – | 5480 | – | – | – | –
5 | CCC(=O)O[C@]1(C(=O)CCl)[C@@H](C)C[C@H]2[C@@H]3CCC4=CC(=O)C=C[C@]4(C)[C@@]3(F)[C@@H](O)C[C@@]21C [CLOBETASOL PROPIONATE] | Not Active | Not Active | Not Active | Not Active | Not Active | – | – | – | – | – | – | – | – | 1.46 | 0.662
6 | C[C@@H]1C[C@H]2[C@@H]3CCC4=CC(=O)C=C[C@]4(C)[C@@]3(F)[C@@H](O)C[C@]2(C)[C@H]1C(=O)CO [DESOXIMETASONE] | Not Active | Not Active | Not Active | Not Active | Not Active | – | – | – | – | – | – | – | – | 2.57 | 1.17
7 | OC(CCCN1CCCCC1)(c1ccccc1)c1ccccc1 [DIPHENIDOL] | Not Active | Not Active | Not Active | Not Active | Not Active | – | – | Not Active | – | – | 326 | – | – | – | –
8 | Oc1c(Cl)cc(Cl)c(Cl)c1Cc1c(O)c(Cl)cc(Cl)c1Cl [HEXACHLOROPHENE] | Not Active | Not Active | Not Active | Not Active | Not Active | 1230 | – | – | – | – | – | – | – | – | –
9 | CC(=O)[C@@]1(O)CC[C@H]2[C@@H]3CCC4=CC(=O)CC[C@]4(C)[C@H]3CC[C@@]21C [HYDROXYPROGESTERONE] | Not Active | Not Active | Not Active | Not Active | Not Active | – | – | – | – | – | – | – | – | 51 | 23
10 | COC1=C(OC)C(=O)C(CCCCCCCCCCO)=C(C)C1=O [IDEBENONE] | Not Active | Not Active | Not Active | Not Active | Not Active | 800 | 5000 | Not Active | – | – | 3000 | – | – | – | –
11 | Cc1c(OCC(F)(F)F)ccnc1C[S+]([O-])c1nc2ccccc2[nH]1 (stereo not given) [LANSOPRAZOLE] | Not Active | Not Active | Not Active | Not Active | Not Active | 337 | – | – | – | – | 5310 | – | – | – | –
12 | O=C(N/N=C/c1ccc([N+](=O)[O-])o1)c1cc([N+](=O)[O-])cc([N+](=O)[O-])c1O [NIFURSOL] | Not Active | Not Active | Not Active | Not Active | Not Active | 5000 | 7000 | – | – | – | – | – | – | – | –
13 | C#CC1(O)CC[C@H]2[C@@H]3CCC4=CC(=O)CC[C@@H]4[C@H]3CC[C@@]21CC (stereo not given in full) [NORGESTREL] | Not Active | Not Active | Not Active | Not Active | Not Active | – | – | – | – | – | – | – | – | 149 | 68
14 | CC(=O)[C@H]1[C@H](C#N)C[C@H]2[C@@H]3CC=C4C[C@@H](O)CC[C@]4(C)[C@H]3CC[C@@]21C [PREGNENOLONE CARBONITRILE] | Not Active | Not Active | Not Active | Not Active | Not Active | – | – | – | – | – | – | – | – | 14000 | 6340
